Assay results: patent US20170275270A1, “BENZYL SUBSTITUTED INDAZOLES” (Bayer Pharma Aktiengesellschaft, priority 2014, published 2017)
pIC50: −log10 of the molar value. Like-named read-outs stand apart in the source and are kept apart here.

What was measured:
[1] = system: HeLa human cervical tumor cells; assay: Proliferation assay (HeLa+Paclitaxel); settings: read-out: Biological Assay 3: HeLa + Paclitaxel IC50, 3 nM paclitaxel, crystal violet;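 further: compounds at 0.001-10 µM added 4 h after paclitaxel, 92 h exposure, absorbance normalized to zero-point plate (0%) and untreated cells (100%), IC50 from 4-parameter fit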
HeLa = assay: Proliferation assay (HeLa cell line); settings: Homo sapiens, 96 h, read-out: Biological Assay 2: Proliferation assay (HeLa cell line) median IC50;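 further: crystal violet staining of cell number, scaled between a plate stained before dosing (0%) and cells left untreated (100%), compounds tested at 0.001-10 µM, IC50 via 4-parameter fit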
[2] = biological target: T1, catalytic domain of human Bub1 (amino acids 704-1085) (Homo sapiens, UniProt O43683); assay: Bub1 kinase assay (TR-FRET); type: biochemical
T1 construct: catalytic domain of human Bub1 (amino acids 704-1085); His6 (N); made in house; host or cells: Hi5 insect cells
T1 sequence (O43683 704-1085): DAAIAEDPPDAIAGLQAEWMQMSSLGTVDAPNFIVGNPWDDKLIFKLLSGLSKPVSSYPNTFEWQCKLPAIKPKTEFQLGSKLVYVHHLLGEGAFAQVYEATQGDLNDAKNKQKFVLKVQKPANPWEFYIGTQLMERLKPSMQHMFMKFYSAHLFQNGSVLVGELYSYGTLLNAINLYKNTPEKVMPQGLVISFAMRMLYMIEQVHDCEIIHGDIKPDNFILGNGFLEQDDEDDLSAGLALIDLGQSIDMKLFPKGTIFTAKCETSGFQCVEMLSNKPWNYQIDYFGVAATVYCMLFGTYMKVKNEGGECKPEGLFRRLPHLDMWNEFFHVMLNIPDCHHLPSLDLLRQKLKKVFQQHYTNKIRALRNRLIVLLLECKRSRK
Outline: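 TR-FRET read-out (Eu-anti-mouse IgG/anti-phosphoserine antibody to streptavidin-XL665 on biotinylated peptide) after EDTA stop and 1 h complex formation at 22° C. Kinase reaction ran 60 min at 22° C with 1:3.4 serial dilutions from 2 mM DMSO stocks. IC50 from 4-parameter logistic fit of normalized inhibition.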

[3] = Biological Assay 1: Bub1 kinase assay median IC50, 10 μM ATP
[4] = 10 μM ATP, read-out: Biological Assay 1: Bub1 kinase assay median IC50

pIC50 [1] | pIC50 (HeLa) | pIC50 [2, 3] | pIC50 [2, 4] | SMILES
5.82 | 5.03 | 7.43 | – | CCOc1cc(F)c(Cn2nc(-c3nc(Nc4ccnc(C)n4)cc(C4CCCO4)n3)c3ccccc32)c(F)c1 (racemic) [Example 2-12-87, 2-[1-(4-ethoxy-2,6-difluorobenzyl)-1H-indazol-3-yl]-N-(2-methylpyrimidin-4-yl)-6-[(2rac)-tetrahydrofuran-2-yl]pyrimidin-4-amine]
6.77 | 5.07 | 8.06 | – | CCOc1cc(F)c(Cn2nc(-c3nc4c(c(Nc5ccnc(NC(C)=O)c5)n3)CC(C)(C)CC4)c3ccccc32)c(F)c1 [Example 2-12-69, N-[4-({2-[1-(4-ethoxy-2,6-difluorobenzyl)-1H-indazol-3-yl]-6,6-dimethyl-5,6,7,8-tetrahydroquinazolin-4-yl}amino)pyridin-2-yl]acetamide]
6.68 | 5.51 | 6.21 | – | CCOc1cc(F)c(Cn2nc(-c3nc4c(c(Nc5cc(C)nc(C)n5)n3)CCC4)c3ccccc32)c(F)c1 [Example 2-12-27, N-(2,6-dimethylpyrimidin-4-yl)-2-[1-(4-ethoxy-2,6-difluorobenzyl)-1H-indazol-3-yl]-6,7-dihydro-5H-cyclopenta[d]pyrimidin-4-amine]
6.62 | 5.47 | 7.80 | – | COCCOc1cc(F)c(Cn2nc(-c3nc(CN4CCOCC4)cc(Nc4ccncc4OC)n3)c3ccccc32)c(F)c1 [Example 2-12-42, 2-{1-[2,6-difluoro-4-(2-methoxyethoxy)benzyl]-1H-indazol-3-yl}-N-(3-methoxypyridin-4-yl)-6-(morpholin-4-ylmethyl)pyrimidin-4-amine]
5.72 | < 5.00 | – | 8.25 | CCOc1cc(F)c(Cn2nc(-c3nc(C)cc(Nc4ccncc4OC(F)(F)F)n3)c3ccccc32)c(F)c1 [Example 2-12-79, 2-[1-(4-ethoxy-2,6-difluorobenzyl)-1H-indazol-3-yl]-6-methyl-N-[3-(trifluoromethoxy)pyr-idin-4-yl]pyrimidin-4-amine]
6.54 | 5.28 | 8.03 | – | CCOc1cc(F)c(Cn2nc(-c3nc4c(c(Nc5ccnc(NC(=O)C6CC6)c5)n3)CCC4)c3ccccc32)c(F)c1 [Example 2-12-28, N-[4-({2-[1-(4-ethoxy-2,6-difluorobenzyl)-1H-indazol-3-yl]-6,7-dihydro-5H-cyclopenta[d]pyrimidin-4-yl}amino)pyridin-2-yl]cyclopropanecarbox-amide]
6.82 | 5.46 | – | 8.11 | CCOc1cc(F)c(Cn2nc(-c3nc(CN4CCCCC4)cc(Nc4ccncc4)n3)c3ccccc32)c(F)c1 [Example 2-15-7, 2-[1-(4-ethoxy-2,6-difluorobenzyl)-1H-indazol-3-yl]-6-(piperidin-1-ylmethyl)-N-(pyridin-4-yl)pyrimidin-4-amine]
6.60 | 5.52 | – | 8.28 | CCOc1cc(F)c(Cn2nc(-c3nc4c(c(Nc5ccncc5C(F)(F)F)n3)CCC4)c3ccccc32)c(F)c1 [Example 2-14-3, 2-[1-(4-ethoxy-2,6-difluorobenzyl)-1H-indazol-3-yl]-N-[3-(trifluoromethyl)pyridin-4-yl]-6,7-dihydro-5H-cyclopenta[d]pyrimidin-4-amine]
6.20 | 5.47 | – | 8.02 | COc1cnccc1Nc1nc(-c2nn(Cc3c(F)cc(OCCO)cc3F)c3ccccc23)ncc1C1CC1 [Example 2-6-36, 2-{4-[(3-{5-cyclopropyl-4-[(3-methoxypyridin-4-yl)amino]pyrimidin-2-yl}-1H-indazol-1-yl)methyl]-3,5-difluorophenoxy} ethanol]
6.00 | 5.10 | 6.89 | – | CCOc1cc(F)c(Cn2nc(-c3nc4c(c(Nc5cc(OC)ncn5)n3)CCC4)c3ccccc32)c(F)c1 [Example 2-12-26, 2-[1-(4-ethoxy-2,6-difluorobenzyl)-1H-indazol-3-yl]-N-(6-methoxypyrimidin-4-yl)-6,7-dihydro-5H-cyclopenta[d]pyrimidin-4-amine]
6.12 | 5.31 | – | 8.17 | COc1cnccc1Nc1nc(-c2nn(Cc3c(F)cc(OCCO)cc3F)c3ccccc23)nc(C)c1C [Example 2-6-31, 2-{3,5-difluoro-4-[(3-{4-[(3-methoxypyridin-4-yl)amino]-5,6-dimethylpyrimidin-2-yl}-1H-indazol-1-yl)methyl]phenoxy}ethanol]
< 5.00 | < 5.00 | 7.52 | – | CCOc1cc(F)c(Cn2nc(-c3nc(Nc4ccnc(C)n4)cc(-c4ccn(C)n4)n3)c3ccccc32)c(F)c1 [Example 2-12-93, 2-[1-(4-ethoxy-2,6-difluorobenzyl)-1H-indazol-3-yl]-6-(1-methyl-1H-pyrazol-3-yl)-N-(2-methylpyrimidin-4-yl)pyrimidin-4-amine]
7.16 | < 5.00 | 8.07 | – | CCOc1cc(F)c(Cn2nc(-c3nc4c(c(Nc5ccncc5)n3)CN(CC)CC4)c3ccccc32)c(F)c1 [Example 2-15-1, 2-[1-(4-ethoxy-2,6-difluorobenzyl)-1H-indazol-3-yl]-6-ethyl-N-(pyridin-4-yl)-5,6,7,8-tetrahydropyrido[4,3-d]pyrimidin-4-amine]
< 5.00 | < 5.00 | 7.18 | – | CCOc1cc(F)c(Cn2nc(-c3nc4c(c(Nc5ccncc5C(=O)O)n3)CCC4)c3ccccc32)c(F)c1 [Example 2-14-9, 4-({2-[1-(4-ethoxy-2,6-difluorobenzyl)-1H-indazol-3-yl]-6,7-dihydro-5H-cyclopenta[d]pyrimidin-4-yl}amino)pyridine-3-carboxylic acid]
5.74 | 5.46 | – | 8.24 | COc1cnccc1Nc1cc(C)nc(-c2nn(Cc3c(F)cc(OCCO)cc3F)c3ccccc23)n1 [Example 2-6-33, 2-{3,5-difluoro-4-[(3-{4-[(3-methoxypyridin-4-yl)amino]-6-methylpyrimidin-2-yl}-1H-indazol-1-yl)methyl]phenoxy}ethanol]
6.11 | < 5.00 | 7.59 | – | COCCOc1cc(F)c(Cn2nc(-c3nc(CN4CCOCC4)cc(Nc4ccnnc4)n3)c3ccccc32)c(F)c1 [Example 2-12-39, N-[2-{1-[2,6-difluoro-4-(2-methoxyethoxy)benzyl]-1H-indazol-3-yl}-6-(morpholin-4-ylmethyl)pyrimidin-4-yl]pyridazin-4-amine]
6.54 | 5.29 | 7.37 | – | Cc1cc(Nc2ccnc(C)n2)nc(-c2nn(Cc3c(F)cc(OCCO)cc3F)c3ccccc23)n1 [Example 2-6-27, 2-{3,5-difluoro-4-[(3-{4-methyl-6-[(2-methylpyrimidin-4-yl)amino]pyrimidin-2-yl}-1H-indazol-1-yl)methyl]phenoxy}ethanol]
7.05 | 5.02 | 6.49 | – | CCOc1cc(F)c(Cn2nc(-c3nc(CN4CCOCC4)cc(Nc4cc(C)nc(C)n4)n3)c3ccccc32)c(F)c1 [Example 2-12-44, N-(2,6-dimethylpyrimidin-4-yl)-2-[1-(4-ethoxy-2,6-difluorobenzyl)-1H-indazol-3-yl]-6-(morpholin-4-ylmethyl)pyrimidin-4-amine]
6.55 | 5.57 | 7.70 | – | CCOc1cc(F)c(Cn2nc(-c3nc(Nc4ccncn4)cc(C4CCOCC4)n3)c3ccccc32)c(F)c1 [Example 2-12-92, 2-[1-(4-ethoxy-2,6-difluorobenzyl)-1H-indazol-3-yl]-N-(pyrimidin-4-yl)-6-(tetrahydro-2H-pyran-4-yl)pyrimidin-4-amine]
7.17 | 5.92 | 7.51 | – | COCCOc1cc(F)c(Cn2nc(-c3ncc(C4CCN(CC5CC5)CC4)c(Nc4ccnc(C)n4)n3)c3ccccc32)c(F)c1 [Example 2-20-12, 5-[1-(cyclopropylmethyl)piperidin-4-yl]-2-{1-[2,6-difluoro-4-(2-methoxyethoxy)benzyl]-1H-indazol-3-yl}-N-(2-methylpyrimidin-4-yl)pyrimidin-4-amine]
6.92 | 5.47 | 7.70 | – | CCOc1cc(F)c(Cn2nc(-c3ncc(C4CN(CC(F)(F)F)C4)c(Nc4ccncc4)n3)c3ccccc32)c(F)c1 [Example 2-11-2, 2-[1-(4-ethoxy-2,6-difluorobenzyl)-1H-indazol-3-yl]-N-(pyridin-4-yl)-5-[1-(2,2,2-trifluoroeth-yl)azetidin-3-yl]pyrimidin-4-amine]
6.96 | 5.06 | 5.52 | – | CCOc1cc(F)c(Cn2nc(-c3nc(CN4CCOCC4)cc(Nc4ncncc4C)n3)c3ccccc32)c(F)c1 [Example 2-12-38, 2-[1-(4-ethoxy-2,6-difluorobenzyl)-1H-indazol-3-yl]-N-(5-methylpyrimidin-4-yl)-6-(morpholin-4-ylmethyl)pyrimidin-4-amine]
6.68 | 5.89 | – | 7.51 | COc1cnccc1Nc1cc(C(C)C)nc(-c2nn(Cc3c(F)cc(OCCO)cc3F)c3ccccc23)n1 [Example 2-6-29, 2-{3,5-difluoro-4-[(3-{4-isopropyl-6-[(3-methoxypyridin-4-yl)amino]pyrimidin-2-yl}-1H-indazol-1-yl)methyl]phenoxy}ethanol]
5.82 | 5.15 | 7.26 | – | Cc1nccc(Nc2nc(-c3nn(Cc4c(F)cc(OCCO)cc4F)c4ccccc34)nc3c2CN(CC(F)(F)F)C3)n1 [Example 2-6-39, 2-{3,5-difluoro-4-[(3-{4-[(2-methylpyrimidin-4-yl)amino]-6-(2,2,2-trifluoroethyl)-6,7-dihydro-5H-pyrrolo[3,4-d]pyrimidin-2-yl}-1H-indazol-1-yl)methyl]phenoxy}ethanol]
